The test system of assay [1] is carrageenin-induced paw edema. The experiment in a line: Anti-inflammatory activity: inhibition of carrageenin-induced paw edema in rats. Format: in vivo, rat (S.D. strain, male). The note with it: po, read-out: Percent inhibition of edema; for inhibition in vivo at 100 mg/kg: 100 mg/kg p.o., rat, 3 hours after carrageenin. The protocol: (1) Anti-inflammatory activity:inhibition of carrageenin-induced paw edema in rats The compound was tested for the above activity according to the method of Winter et al. [Proc. Soc. […] One hour after the test compound was orally given to the animal, 0.1 ml of 1% carrageenin solution was subcutaneously injected into the right footpad. The paw volume was measured 3 hours thereafter, and the resulting increase in the volume was calculated based on the volume before the injection of carrageenin solution. The percent inhibition was determined in comparison with the increase in the control group.

Assay [2] deals with T1, 5-lipoxygenase (Cavia porcellus, UniProt A0A286X958).
T1 construct: endogenous in cells; host or cells: guinea pig peritoneal exudate cells (casein-elicited), intact cell suspension
T1 sequence (A0A286X958 1-674): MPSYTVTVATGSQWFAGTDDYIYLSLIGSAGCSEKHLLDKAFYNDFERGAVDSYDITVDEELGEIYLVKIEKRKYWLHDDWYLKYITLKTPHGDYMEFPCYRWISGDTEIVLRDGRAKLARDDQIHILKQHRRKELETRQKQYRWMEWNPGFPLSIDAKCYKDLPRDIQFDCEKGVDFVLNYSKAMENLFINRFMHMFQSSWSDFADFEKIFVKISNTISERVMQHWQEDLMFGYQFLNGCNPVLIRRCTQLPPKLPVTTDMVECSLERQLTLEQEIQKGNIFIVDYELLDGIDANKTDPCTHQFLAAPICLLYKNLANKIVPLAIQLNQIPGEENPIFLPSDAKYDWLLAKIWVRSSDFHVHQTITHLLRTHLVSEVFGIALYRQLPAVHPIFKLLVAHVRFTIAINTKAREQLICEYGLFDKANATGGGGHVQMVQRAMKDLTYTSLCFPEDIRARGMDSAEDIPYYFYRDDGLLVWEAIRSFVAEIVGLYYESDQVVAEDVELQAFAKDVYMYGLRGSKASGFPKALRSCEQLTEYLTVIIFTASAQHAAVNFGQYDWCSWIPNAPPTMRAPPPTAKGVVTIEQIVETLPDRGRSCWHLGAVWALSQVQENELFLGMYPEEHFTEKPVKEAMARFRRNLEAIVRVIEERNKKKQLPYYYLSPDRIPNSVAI
In words: 5-Lipoxygenase inhibitory activity (5-HETE formation in guinea pig peritoneal exudate cells). Format: cell-based. The settings on record: read-out: Percent inhibition of 5-lipoxygenase. The protocol:
(J. Biol. Chem., 256, 4156 (1981)) and to the method of Ochi et al. (J. Biol. Chem., 258, 5754 (1983). More specifically, 2% casein was intraperitoneally given to a guinea pig, which was bleeded to death 14 to 16 hours thereafter. The peritoneal cavity was washed to collect exudate cells, which were suspended in a phosphate buffer containing 1 mM CaCl2 and 5.5 mM glucose to a concentration of 2.5×10^7 cells/ml. The cell suspension was incubated at 30° C. for 2 minutes. The test compound was then added to the cell suspension, followed by incubation for 2 minutes. With addition of 10 μM of A23187 first and then 10 μM of ^14 C-arachidonic acid to the resulting suspension. Then, the suspension was incubated for 3 minutes. […] The arachidonic acid, 5(S)-hydroxy-6,8,11,14-eicosatetraenoic acid (5-HETE) and other portions were thereafter scraped off, and ^14 C was counted by a scintillator.

The results in this text go back to US4906662A, “Phenol derivatives, their preparation and the use thereof” (Otsuka Pharmaceutical Factory, Inc., priority 1986, dated 1990).

Usually inhibition stands for the change of the read-out against control, counted positive when it falls.

Structures can show the parent of a compound that is named as a salt.

Turning to `CC(C)(C)c1cc(Nc2ccccc2)cc(C(C)(C)C)c1O` [2,6-di-tert-butyl-4-phenylaminophenol, reference compound], the inhibition in vivo at 100 mg/kg in assay [1] came to 62%. In addition, in assay [2], the inhibition at 1 µM amounted to 2% and the inhibition at 10 µM was 62%.
For `COC(=O)Cc1ccc(Nc2cc(C)c(O)c(C)c2C)cc1` [Compound 86, 4-(4-methoxycarbonylmethylphenylamino)-2,3,6-trimethylphenol], in assay [2], the inhibition at 1 µM is 93% and the inhibition at 10 µM was 92%.
Turning to `CCCCCCCCCNC(=O)c1ccc(Nc2cc(C(C)(C)C)c(O)c(C(C)(C)C)c2)cc1` [Compound 63], the inhibition in vivo at 100 mg/kg in assay [1] turned out to be 29%.
On the same count and under the same terms, as for `CC(C)(C)c1cc(Nc2ccc(CC(=O)N3CCOCC3)cc2)cc(C(C)(C)C)c1O` [Compound 71], the figure is 20%.
Regarding `CC(C)(C)c1cc(Nc2ccccc2C(=O)O)cc(C(C)(C)C)c1O` [Compound 25, 2,6-di-tert-butyl-4-(2-carboxyphenylamino)phenol], in assay [2], the inhibition at 10 µM is 66%.
Turning to `CC(C)(C)c1cc(Nc2ccccc2/C=C/C(=O)O)cc(C(C)(C)C)c1O` [Compound 48, 2-(3,5-di-tert-butyl-4-hydroxyphenylamino)cinnamic acid], the inhibition in vivo at 100 mg/kg in assay [1] was found to be 62%.
Regarding `CC(C)(C)c1cc(Nc2ccccc2O)cc(C(C)(C)C)c1O` [Compound 3], the inhibition in vivo at 100 mg/kg in assay [1] stood at 25%.
As to `CC(C)(C)c1cc(Nc2ccc(CCO)cc2)cc(C(C)(C)C)c1O` [Compound 33], in assay [2], the inhibition at 1 µM is 52% and the inhibition at 10 µM was 86%.
On to `Cc1ccc(Nc2cc(C)c(O)c(C)c2C)cc1` [Compound 81, 2,3,6-trimethyl-4-(4-methylphenylamino)phenol], for which, in assay [2], the inhibition at 1 µM was determined as 91% and the inhibition at 10 µM is 95%.
For `CC(C)(C)c1cc(Nc2cccc(CO)c2)cc(C(C)(C)C)c1O` [Compound 31, 2,6-di-tert-butyl-4-(3-hydroxymethylphenylamino)phenol hydrochloride], in assay [1], the inhibition in vivo at 100 mg/kg was 33%. In assay [2], the inhibition at 1 µM was 50% and the inhibition at 10 µM is 88%.
With `CC(C)(C)c1cc(Nc2ccc(CCCC(=O)O)cc2)cc(C(C)(C)C)c1O` [Compound 22], in assay [2], the inhibition at 1 µM is 28% and the inhibition at 10 µM is 67%.
Consider `CC(C)(C)c1cc(Nc2ccc(CC(=O)NN)cc2)cc(C(C)(C)C)c1O` [Compound 76, 2,6-di-tert-butyl-4-(4-hydrazinocarbonylmethylphenylamino)phenol], for which the inhibition in vivo at 100 mg/kg in assay [1] turned out to be 47%.
With `CN(C)c1ccc(Nc2cc(C(C)(C)C)c(O)c(C(C)(C)C)c2)cc1` [Compound 42, 4-(4-dimethylaminophenylamino)-2,6-di-tert-butylphenol dihydrochloride], in assay [2], the inhibition at 1 µM came out at 19% and the inhibition at 10 µM is 50%.
Turning to `Cc1cc(Nc2ccccc2)c2c(c1O)CCCC2` [Compound 80, 2-methyl-4-phenylamino-5,6,7,8-tetrahydronaphthol], in assay [2], the inhibition at 1 µM was 78% and the inhibition at 10 µM stood at 94%.
On to `Cc1cc(Nc2ccc(C(=O)O)cc2)c(C)c(C)c1O` [Compound 102], for which, in assay [2], the inhibition at 1 µM was determined as 42% and the inhibition at 10 µM turned out to be 90%.
For the compound `CCCCCCNC(=O)/C=C/c1cccc(Nc2cc(C(C)(C)C)c(O)c(C(C)(C)C)c2)c1` [Compound 66], the inhibition in vivo at 100 mg/kg in assay [1] is 15%.
In the case of `Cc1cc(Nc2ccc(CC(=O)O)cc2)c2c(c1O)CCCC2` [Compound 104], in assay [2], the inhibition at 1 µM was 55% and the inhibition at 10 µM came to 90%.
The matching figures for `Cc1cc(Nc2ccc(Cl)cc2)c(C)c(C)c1O` [Compound 94, 2,3,6-trimethyl-4-(4-chlorophenylamino)phenol]: 90% and 96%.
For the compound `CC(C)(C)c1cc(Nc2cccc(C(N)=O)c2)cc(C(C)(C)C)c1O` [Compound 89], the inhibition in vivo at 100 mg/kg in assay [1] was determined as 31%.
In the case of `Cc1ccc(Nc2cc(C(C)(C)C)c(O)c(C(C)(C)C)c2)c(C(=O)O)c1` [Compound 29], in assay [2], the inhibition at 1 µM stood at 19% and the inhibition at 10 µM worked out at 71%.
In the case of `CSc1ccccc1Nc1cc(C(C)(C)C)c(O)c(C(C)(C)C)c1` [Compound 12], the inhibition in vivo at 100 mg/kg in assay [1] stood at 41%.
Regarding `CC(C)(C)c1cc(Nc2ccc(CC(=O)O)cc2)cc(C(C)(C)C)c1O` [Compound 5], in assay [2], the inhibition at 1 µM was 21% and the inhibition at 10 µM was found to be 46%.
Turning to `CC(C)(C)c1cc(Nc2cccc(C(=O)O)c2)cc(C(C)(C)C)c1O` [Compound 24, 2,6-di-tert-butyl-4-(3-carboxyphenylamino)phenol], in assay [2], the inhibition at 1 µM worked out at 26% and the inhibition at 10 µM amounted to 51%.
With `Cc1cc(Nc2cccc(CC(=O)O)c2)c(C)c(C)c1O` [Compound 103], in assay [2], the inhibition at 1 µM turned out to be 41% and the inhibition at 10 µM was determined as 91%.
Consider `CC(C)(C)c1cc(Nc2ccc(S(C)(=O)=O)cc2)cc(C(C)(C)C)c1O` [Compound 92], for which the inhibition in vivo at 100 mg/kg in assay [1] was found to be 35%.
Take `Cc1ccc(Nc2cc(C(C)(C)C)c(O)c(C(C)(C)C)c2)cc1` [Compound 20]: in assay [2], the inhibition at 1 µM was 16% and the inhibition at 10 µM was 51%.
`CCCCCC(=O)/C=C/c1cccc(Nc2cc(C(C)(C)C)c(O)c(C(C)(C)C)c2)c1` [Compound 51]: the inhibition in vivo at 100 mg/kg in assay [1] was 10%.
`CC(C)(C)c1cc(Nc2ccc(S(N)(=O)=O)cc2)cc(C(C)(C)C)c1O` [Compound 93]: in assay [1], the inhibition in vivo at 100 mg/kg is 16%.
Turning to `CC(=O)c1ccc(Nc2cc(C(C)(C)C)c(O)c(C(C)(C)C)c2)cc1` [Compound 9], in assay [2], the inhibition at 1 µM was found to be 27% and the inhibition at 10 µM is 67%.
With `CC(Cc1ccc(O)c(O)c1)C(C)Cc1ccc(O)c(O)c1` (stereo not shown) [NDGA, nordihydroguaiaretic acid, reference compound], the inhibition at 1 µM in assay [2] was 45%.
For `CCOC(=O)/C=C/c1cccc(Nc2cc(C)c(O)c(C)c2C)c1` [Compound 52, ethyl 3-(4-hydroxy-2,3,5-trimethylphenylamino)cinnamate hydrochloride], in assay [2], the inhibition at 1 µM stood at 75% and the inhibition at 10 µM is 95%.
In the case of `CC(C)(C)c1cc(Nc2ccc(Cl)cc2CO)cc(C(C)(C)C)c1O` [Compound 38, 2,6-di-tert-butyl-4-(4-chloro-2-hydroxymethylphenylamino)phenol], the inhibition in vivo at 100 mg/kg in assay [1] turned out to be 79%.
`COc1ccc(Nc2cc(C)c(O)c(C)c2C)cc1` [Compound 91, 2,3,6-trimethyl-4-(4-methoxyphenylamino)phenol]: in assay [2], the inhibition at 1 µM was 95% and the inhibition at 10 µM was determined as 95%.
On to `COC(=O)Cc1ccc(Nc2cc(C)c(O)c3c2CCCC3)cc1` [Compound 87, 2-methyl-4-(4-methoxycarbonylmethylphenylamino)-5,6,7,8-tetrahydronaphthol], for which, in assay [2], the inhibition at 1 µM stood at 89% and the inhibition at 10 µM amounted to 95%.
For the compound `CC(C)(C)c1cc(Nc2cccc(C(F)(F)F)c2)cc(C(C)(C)C)c1O` [Compound 4], the inhibition in vivo at 100 mg/kg in assay [1] was 16%.
For the compound `CC(C)(C)c1cc(Nc2ccc(C(=O)O)cc2)cc(C(C)(C)C)c1O` [Compound 26], in assay [2], the inhibition at 1 µM was 33% and the inhibition at 10 µM was 71%.
As for `CC(C)(C)c1cc(Nc2ccccc2Cl)cc(C(C)(C)C)c1O` [Compound 2], the inhibition in vivo at 100 mg/kg in assay [1] is 12%.
As for `COc1ccc2c(c1)c(CC(=O)O)c(C)n2C(=O)c1ccc(Cl)cc1` [indomethacin, reference compound], the inhibition in vivo at 5 mg/kg in assay [1] (Rattus norvegicus, 3 h) was 62%.
Consider `CC(C)(C)c1cc(Nc2ccc(C#N)cc2)cc(C(C)(C)C)c1O` [Compound 28, 2,6-di-tert-butyl-4-(4-cyanophenylamino)phenol], for which, in assay [1], the inhibition in vivo at 100 mg/kg worked out at 58%.
Turning to `CC(C)(C)c1cc(Nc2cc(Cl)ccc2O)cc(C(C)(C)C)c1O` [Compound 19], in assay [2], the inhibition at 1 µM amounted to 37% and the inhibition at 10 µM came to 58%.
